Blank lines part the entries; values can stand above or below the compound they belong to.
Tests used:
[1] = biological target: D(1A) dopamine receptor (Homo sapiens, UniProt P21728); experiment: Antagonist activity at D1R (unknown origin) transfected in HEK293 cells by FLIPR assay
[2] = biological target: T1, 5-hydroxytryptamine receptor 2C (Homo sapiens, UniProt P28335); experiment: Partial agonist activity at human 5-HT2C stably transfected in HEK293T cells measured after 18 to 24 hrs by FLIPR assay; format: functional, cell-based
T1 sequence (P28335 whole entry): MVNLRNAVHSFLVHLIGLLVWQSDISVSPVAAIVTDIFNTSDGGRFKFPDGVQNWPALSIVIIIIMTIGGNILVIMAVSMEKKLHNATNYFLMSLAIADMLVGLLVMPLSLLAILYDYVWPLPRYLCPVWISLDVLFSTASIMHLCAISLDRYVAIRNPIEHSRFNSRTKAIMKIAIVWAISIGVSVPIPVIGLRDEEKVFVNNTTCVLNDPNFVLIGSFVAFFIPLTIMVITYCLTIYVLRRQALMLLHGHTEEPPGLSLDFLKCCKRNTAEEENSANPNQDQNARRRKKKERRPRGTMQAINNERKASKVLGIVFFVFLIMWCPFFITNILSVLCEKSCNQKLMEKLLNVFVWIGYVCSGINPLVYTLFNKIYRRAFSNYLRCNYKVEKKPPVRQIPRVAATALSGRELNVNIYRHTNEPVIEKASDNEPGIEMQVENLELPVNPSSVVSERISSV

[3] = biological target: T2, 5-hydroxytryptamine receptor 2C (Homo sapiens) (UniProt P28335); experiment: Partial agonist activity at human 5-HT2C stably transfected in HEK293T cells measured after 18 to 24 hrs by FLIPR assay relative to control; format: functional, cell-based; conditions: filed as partial agonist, time 18-24 hrs
T2 sequence (whole entry): T1 sequence (P28335 whole entry)

[4] = biological target: T3, Alpha-1D adrenergic receptor (Homo sapiens) (UniProt P25100); experiment: Binding affinity to human alpha1D adrenergic receptors transfected in HEK293 cells assessed as antagonist dissociation constant measured after 1 hrs; format: cell-based; conditions: filed as antagonist
T3 sequence (whole entry): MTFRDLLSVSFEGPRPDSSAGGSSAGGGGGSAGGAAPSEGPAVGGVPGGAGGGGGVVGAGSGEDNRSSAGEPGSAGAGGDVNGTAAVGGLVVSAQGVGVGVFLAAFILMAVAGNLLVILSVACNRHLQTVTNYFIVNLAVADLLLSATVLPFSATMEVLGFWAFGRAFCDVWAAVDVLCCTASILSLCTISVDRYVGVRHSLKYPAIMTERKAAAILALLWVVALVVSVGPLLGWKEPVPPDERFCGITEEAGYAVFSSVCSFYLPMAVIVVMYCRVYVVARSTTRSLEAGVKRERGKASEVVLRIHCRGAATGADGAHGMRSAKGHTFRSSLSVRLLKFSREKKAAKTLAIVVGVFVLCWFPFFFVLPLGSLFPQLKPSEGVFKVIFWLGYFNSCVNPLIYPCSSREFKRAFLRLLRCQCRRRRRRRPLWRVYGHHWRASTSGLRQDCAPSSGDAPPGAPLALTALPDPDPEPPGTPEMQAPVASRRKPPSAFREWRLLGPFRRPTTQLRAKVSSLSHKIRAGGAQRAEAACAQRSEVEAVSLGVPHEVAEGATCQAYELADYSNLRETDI

[5] = biological target: T4, 5-hydroxytryptamine receptor 2A (Homo sapiens, UniProt P28223); experiment: Binding affinity to human 5-HT2A transfected in HEK293 cells assessed as antagonist dissociation constant measured after 1 hrs; format: cell-based; conditions: filed as antagonist
[6] = biological target: T5, Alpha-1A adrenergic receptor (Homo sapiens) (UniProt P35348); experiment: Binding affinity to human alpha1A adrenergic receptors transfected in HEK293 cells assessed as antagonist dissociation constant measured after 1 hrs; format: cell-based; conditions: filed as antagonist
T5 sequence (whole entry): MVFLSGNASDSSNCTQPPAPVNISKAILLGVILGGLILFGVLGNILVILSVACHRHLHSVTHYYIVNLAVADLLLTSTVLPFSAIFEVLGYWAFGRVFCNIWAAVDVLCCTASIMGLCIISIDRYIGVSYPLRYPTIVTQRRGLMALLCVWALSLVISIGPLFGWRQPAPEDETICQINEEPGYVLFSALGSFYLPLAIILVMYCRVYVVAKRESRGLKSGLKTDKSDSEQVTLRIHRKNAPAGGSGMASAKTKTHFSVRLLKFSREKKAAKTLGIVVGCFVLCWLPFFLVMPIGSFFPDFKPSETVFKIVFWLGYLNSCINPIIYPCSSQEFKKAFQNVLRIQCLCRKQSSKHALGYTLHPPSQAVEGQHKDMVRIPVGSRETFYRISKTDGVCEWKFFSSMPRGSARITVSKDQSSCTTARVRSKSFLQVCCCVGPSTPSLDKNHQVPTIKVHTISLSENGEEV

[7] = biological target: T6, Alpha-1B adrenergic receptor (Homo sapiens) (UniProt P35368); experiment: Binding affinity to human alpha1B adrenergic receptors transfected in HEK293 cells assessed as antagonist dissociation constant measured after 1 hrs; format: cell-based; conditions: filed as antagonist
T6 sequence (whole entry): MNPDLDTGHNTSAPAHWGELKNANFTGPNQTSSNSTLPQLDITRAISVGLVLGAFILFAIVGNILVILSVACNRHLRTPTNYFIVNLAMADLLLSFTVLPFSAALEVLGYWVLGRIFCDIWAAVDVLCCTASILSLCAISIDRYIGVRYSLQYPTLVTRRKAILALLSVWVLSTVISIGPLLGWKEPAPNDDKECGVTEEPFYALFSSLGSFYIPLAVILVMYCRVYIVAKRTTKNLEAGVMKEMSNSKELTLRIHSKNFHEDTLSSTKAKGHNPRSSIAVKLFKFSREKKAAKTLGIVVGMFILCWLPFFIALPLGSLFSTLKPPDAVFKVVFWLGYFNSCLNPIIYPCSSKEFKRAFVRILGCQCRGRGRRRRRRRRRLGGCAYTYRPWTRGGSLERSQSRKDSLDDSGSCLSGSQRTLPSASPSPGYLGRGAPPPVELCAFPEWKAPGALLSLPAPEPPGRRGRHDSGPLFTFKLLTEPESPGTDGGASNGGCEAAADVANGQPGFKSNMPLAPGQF

[8] = biological target: 5-hydroxytryptamine receptor 2B (Homo sapiens, UniProt P41595); experiment: Binding affinity to human 5-HT2B transfected in HEK293 cells assessed as antagonist dissociation constant measured after 1 hrs; format: cell-based; conditions: filed as antagonist
[9] = biological target: Cholinesterase (Equus caballus, UniProt P81908); experiment: Inhibition of equine serum BuChE using BTCI as substrate pre-incubated for 10 mins followed by substrate addition measured after 5 mins by microplate reader analysis
[10] = biological target: Acetylcholinesterase (Electrophorus electricus, UniProt O42275); experiment: Inhibition of Electrophorus electricus AChE using ATCI as substrate pre-incubated for 10 mins followed by substrate addition measured after 5 mins by microplate reader analysis
[11] = biological target: T2, 5-hydroxytryptamine receptor 2C (Homo sapiens); experiment: Binding affinity to human 5-HT2C transfected in HEK293 cells assessed as antagonist dissociation constant measured after 1 hrs; format: cell-based; conditions: filed as antagonist
[12] = Inhibition of neuronal excitability in mouse Primary neocortical neuron assessed as reduction in SCO frequency measured after 45 mins by FLIPR assay; format: functional, cell-based; conditions: 0.75 h
[13] = Inhibition of neuronal excitability in mouse Primary neocortical neuron assessed as reduction in SCO amplitude measured after 45 mins by FLIPR assay; format: functional, cell-based; conditions: 0.75 h
[14] = biological target: T7, 5-hydroxytryptamine receptor 1A (Homo sapiens, UniProt P08908); experiment: Displacement of [3H]8-OH-DPAT from human 5-HT1A assessed as inhibition constant
T7 sequence (P08908 whole entry): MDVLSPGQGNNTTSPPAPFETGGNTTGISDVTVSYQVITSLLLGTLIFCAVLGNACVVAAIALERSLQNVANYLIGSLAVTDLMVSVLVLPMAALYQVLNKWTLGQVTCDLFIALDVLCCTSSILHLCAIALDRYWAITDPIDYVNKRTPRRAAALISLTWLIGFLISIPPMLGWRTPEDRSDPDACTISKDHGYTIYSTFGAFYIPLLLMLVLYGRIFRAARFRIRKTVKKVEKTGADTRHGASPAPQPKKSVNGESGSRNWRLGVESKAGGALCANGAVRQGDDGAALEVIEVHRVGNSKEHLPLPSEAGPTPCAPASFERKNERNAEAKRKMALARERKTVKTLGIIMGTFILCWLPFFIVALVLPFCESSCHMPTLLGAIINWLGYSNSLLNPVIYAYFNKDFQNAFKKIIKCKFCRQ

[15] = biological target: 5-hydroxytryptamine receptor 7 (Rattus norvegicus, UniProt P32305); experiment: Displacement of [3H]5-HT from rat 5-HT7 assessed as inhibition constant
[16] = biological target: D(2) dopamine receptor (Homo sapiens, UniProt P14416); experiment: Partial agonist activity at D2R (unknown origin) expressed in HEK293 cells relative to control; format: functional, cell-based; conditions: filed as partial agonist
[17] = biological target: 5-hydroxytryptamine receptor 7 (Homo sapiens, UniProt P34969); experiment: Inverse agonist activity at 5-HT7 (unknown origin); format: functional
[18] = biological target: T1, 5-hydroxytryptamine receptor 2C; experiment: Antagonist activity at 5-HT2C (unknown origin); format: functional
[19] = biological target: T4, 5-hydroxytryptamine receptor 2A; experiment: Inverse agonist activity at 5-HT2A (unknown origin); format: functional

T4 sequence (P28223 whole entry): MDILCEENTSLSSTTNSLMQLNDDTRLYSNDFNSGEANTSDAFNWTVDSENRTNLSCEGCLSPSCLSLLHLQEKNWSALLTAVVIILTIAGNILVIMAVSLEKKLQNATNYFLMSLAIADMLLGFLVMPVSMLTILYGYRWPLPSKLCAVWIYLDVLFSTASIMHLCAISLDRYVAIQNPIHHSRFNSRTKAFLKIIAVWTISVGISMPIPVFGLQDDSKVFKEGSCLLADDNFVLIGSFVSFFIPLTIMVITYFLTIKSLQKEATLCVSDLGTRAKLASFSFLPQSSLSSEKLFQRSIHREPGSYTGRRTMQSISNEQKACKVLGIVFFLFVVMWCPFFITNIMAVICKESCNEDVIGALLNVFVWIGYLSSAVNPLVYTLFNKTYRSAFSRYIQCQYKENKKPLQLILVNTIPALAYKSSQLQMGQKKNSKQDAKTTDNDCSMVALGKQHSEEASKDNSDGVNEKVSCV
Sequence of D(1A) dopamine receptor (P21728 whole entry): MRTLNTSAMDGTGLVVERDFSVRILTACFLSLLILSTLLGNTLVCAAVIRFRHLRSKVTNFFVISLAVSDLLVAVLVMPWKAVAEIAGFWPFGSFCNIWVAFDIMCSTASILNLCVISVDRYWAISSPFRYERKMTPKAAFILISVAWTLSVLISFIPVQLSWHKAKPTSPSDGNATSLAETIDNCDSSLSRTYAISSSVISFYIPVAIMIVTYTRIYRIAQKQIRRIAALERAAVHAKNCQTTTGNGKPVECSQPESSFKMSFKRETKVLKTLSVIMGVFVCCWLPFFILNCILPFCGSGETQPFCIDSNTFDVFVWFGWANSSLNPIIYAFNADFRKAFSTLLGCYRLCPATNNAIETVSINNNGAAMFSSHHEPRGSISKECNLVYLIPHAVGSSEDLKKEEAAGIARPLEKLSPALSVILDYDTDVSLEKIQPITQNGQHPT
Sequence of D(2) dopamine receptor (P14416 whole entry): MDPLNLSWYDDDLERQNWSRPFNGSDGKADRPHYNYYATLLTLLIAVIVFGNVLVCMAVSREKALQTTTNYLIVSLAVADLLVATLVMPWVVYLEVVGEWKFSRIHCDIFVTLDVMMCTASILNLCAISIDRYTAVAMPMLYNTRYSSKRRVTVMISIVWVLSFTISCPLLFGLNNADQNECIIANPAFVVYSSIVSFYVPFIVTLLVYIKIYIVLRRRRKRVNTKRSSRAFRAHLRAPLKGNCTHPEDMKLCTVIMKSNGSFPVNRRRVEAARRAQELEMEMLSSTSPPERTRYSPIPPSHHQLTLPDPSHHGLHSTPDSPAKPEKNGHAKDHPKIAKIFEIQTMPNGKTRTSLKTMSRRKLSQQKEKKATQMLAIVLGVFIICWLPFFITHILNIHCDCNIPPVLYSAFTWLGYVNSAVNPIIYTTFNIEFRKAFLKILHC
Sequence of Acetylcholinesterase (O42275 whole entry): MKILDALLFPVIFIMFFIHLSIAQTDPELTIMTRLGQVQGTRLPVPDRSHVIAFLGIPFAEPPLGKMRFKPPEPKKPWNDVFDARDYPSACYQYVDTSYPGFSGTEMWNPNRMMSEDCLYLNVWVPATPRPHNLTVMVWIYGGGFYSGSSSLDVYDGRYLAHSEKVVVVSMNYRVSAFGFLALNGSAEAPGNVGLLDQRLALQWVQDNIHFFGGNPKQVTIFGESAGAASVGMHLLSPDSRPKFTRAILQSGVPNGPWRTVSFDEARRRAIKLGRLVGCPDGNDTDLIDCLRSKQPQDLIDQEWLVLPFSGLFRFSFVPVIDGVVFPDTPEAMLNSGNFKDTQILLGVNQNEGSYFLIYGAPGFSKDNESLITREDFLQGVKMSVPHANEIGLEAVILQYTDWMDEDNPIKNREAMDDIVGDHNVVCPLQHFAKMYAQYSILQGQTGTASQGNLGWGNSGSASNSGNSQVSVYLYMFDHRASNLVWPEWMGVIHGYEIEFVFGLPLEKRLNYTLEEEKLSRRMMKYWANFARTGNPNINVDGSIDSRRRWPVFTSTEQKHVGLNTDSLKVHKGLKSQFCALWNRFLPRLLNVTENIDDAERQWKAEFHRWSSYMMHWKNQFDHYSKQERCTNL
Sequence of Cholinesterase (P81908 whole entry): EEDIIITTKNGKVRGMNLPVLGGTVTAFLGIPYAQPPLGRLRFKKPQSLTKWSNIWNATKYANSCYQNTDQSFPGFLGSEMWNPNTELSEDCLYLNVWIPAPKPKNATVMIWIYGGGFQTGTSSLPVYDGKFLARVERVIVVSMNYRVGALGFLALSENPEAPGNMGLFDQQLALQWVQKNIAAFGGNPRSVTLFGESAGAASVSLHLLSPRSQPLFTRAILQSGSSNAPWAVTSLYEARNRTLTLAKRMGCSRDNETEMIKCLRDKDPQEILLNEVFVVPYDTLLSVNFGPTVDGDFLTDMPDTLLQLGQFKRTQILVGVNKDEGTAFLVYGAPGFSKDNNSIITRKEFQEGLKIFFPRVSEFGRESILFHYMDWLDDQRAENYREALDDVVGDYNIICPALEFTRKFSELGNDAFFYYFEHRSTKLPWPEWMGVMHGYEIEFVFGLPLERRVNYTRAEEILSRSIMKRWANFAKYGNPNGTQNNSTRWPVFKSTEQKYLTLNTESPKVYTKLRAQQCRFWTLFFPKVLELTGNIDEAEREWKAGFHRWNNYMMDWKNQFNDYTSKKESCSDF
Sequence of 5-hydroxytryptamine receptor 7 (Homo sapiens, UniProt P34969) (P34969 whole entry): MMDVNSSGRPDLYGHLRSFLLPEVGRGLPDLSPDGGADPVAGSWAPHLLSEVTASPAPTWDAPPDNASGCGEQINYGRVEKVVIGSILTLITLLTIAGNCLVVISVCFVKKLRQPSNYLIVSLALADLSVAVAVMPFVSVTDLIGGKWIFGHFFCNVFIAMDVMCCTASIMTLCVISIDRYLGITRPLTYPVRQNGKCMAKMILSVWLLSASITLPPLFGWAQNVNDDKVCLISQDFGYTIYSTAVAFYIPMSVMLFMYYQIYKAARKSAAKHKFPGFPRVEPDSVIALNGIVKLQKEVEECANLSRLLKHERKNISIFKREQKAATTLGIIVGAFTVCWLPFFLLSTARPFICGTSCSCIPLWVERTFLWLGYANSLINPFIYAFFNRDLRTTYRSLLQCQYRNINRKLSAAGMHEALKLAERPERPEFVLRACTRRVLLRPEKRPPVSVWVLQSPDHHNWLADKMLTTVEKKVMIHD
Sequence of 5-hydroxytryptamine receptor 2B (P41595 whole entry): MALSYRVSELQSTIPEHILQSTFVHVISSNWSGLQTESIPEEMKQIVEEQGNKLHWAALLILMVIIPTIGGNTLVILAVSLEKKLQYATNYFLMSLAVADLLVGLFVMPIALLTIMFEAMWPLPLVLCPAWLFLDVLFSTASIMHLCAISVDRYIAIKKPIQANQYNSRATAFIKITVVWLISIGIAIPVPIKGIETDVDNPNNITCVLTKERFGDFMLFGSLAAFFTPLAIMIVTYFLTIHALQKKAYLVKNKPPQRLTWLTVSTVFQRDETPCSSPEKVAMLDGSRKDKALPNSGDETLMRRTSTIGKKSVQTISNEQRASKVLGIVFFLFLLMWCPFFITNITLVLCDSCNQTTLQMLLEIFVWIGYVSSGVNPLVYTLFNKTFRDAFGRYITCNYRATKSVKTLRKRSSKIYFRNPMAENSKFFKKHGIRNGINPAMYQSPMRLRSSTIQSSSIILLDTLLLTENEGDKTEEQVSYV
Sequence of 5-hydroxytryptamine receptor 7 (Rattus norvegicus, UniProt P32305) (P32305 whole entry): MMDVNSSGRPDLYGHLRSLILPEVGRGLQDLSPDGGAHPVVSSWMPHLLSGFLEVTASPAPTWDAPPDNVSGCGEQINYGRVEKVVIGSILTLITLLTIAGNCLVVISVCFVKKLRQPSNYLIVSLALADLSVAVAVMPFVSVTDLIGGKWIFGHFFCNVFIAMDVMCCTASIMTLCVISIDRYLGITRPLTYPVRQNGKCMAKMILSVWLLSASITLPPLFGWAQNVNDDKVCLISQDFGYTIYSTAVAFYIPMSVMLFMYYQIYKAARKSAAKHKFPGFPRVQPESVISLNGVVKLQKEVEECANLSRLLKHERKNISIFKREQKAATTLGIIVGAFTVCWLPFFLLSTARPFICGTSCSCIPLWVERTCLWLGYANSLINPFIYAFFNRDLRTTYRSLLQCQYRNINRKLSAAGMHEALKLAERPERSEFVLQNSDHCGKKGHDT

SMILES: COc1cc2c3c(c1OC)-c1ccccc1CC3NCC2 (centres undefined) [NORNUCIFERINE]
IC50 [1]: 38500 nM
EC50 [2]: 308 nM
Emax [3]: 65.6%

SMILES: COc1cc2c(cc1OC)-c1c3c(cc4c1[C@H](C2)N(C)CC4)OCO3 [DICENTRINE]
Kb [4]: 181 nM
Kb [5]: 83.9 nM
Kb [6]: 163 nM
Kb [7]: 155 nM
Kb [8]: 208 nM
IC50 [9]: 26400 nM
IC50 [10]: 6110 nM
Kb [11]: 776 nM

SMILES: COc1ccc2c(c1O)-c1c3c(cc4c1[C@H](C2)N(C)CC4)OCO3 [(S)-BULBOCAPNINE]
IC50 [12]: 11600 nM
IC50 [13]: 12900 nM

Ki [14]: 61.5 nM
Ki [15]: 6.9 nM
SMILES: CN1CCc2ccc3c4c2[C@H]1Cc1cccc(c1-4)[C@]3(C)O

SMILES: COc1cc2c3c(c1OC)-c1ccccc1CC3N(C)CC2 (stereo not drawn) [(+/-)-NUCIFERINE]
Emax [16]: 67%
EC50 [17]: 150 nM
IC50 [18]: 131 nM
IC50 [19]: 478 nM

Source: ChEMBL document CHEMBL5370537, “Aporphines: A privileged scaffold in CNS drug discovery” (Eur J Med Chem, 2023)
